Read-outs that look alike come from different tables or passages of the source.
Key:
[1] = biological target: PFKFB3 (Homo sapiens, UniProt Q16875); test: Enzymatic activity of recombinant PFKFB3, ADP-Glo assay; format: biochemical
Method: The inducible bifunctional 6-Phosphofructo-2-kinase/fructose2,6-biphosphatase enzyme (PFKFB3) was expressed and purified in order to determine if PFK-158 inhibits enzymatic activity. PFKFB3 was prepared by expression in E. coli and purified by GST column and column chromatography. […] The recombinant protein was pure and active as determined by the results of a commercially available kinase activity assay (ADP-Glo™, Promega, Madison, Wis.).

[2] = system: Jurkat cells; test: Inhibition of 14C-2-deoxyglucose uptake; format: cell-based; conditions: Homo sapiens, Jurkat cells
Method: Inhibition of PFKFB3 results in inhibiting glycolysis. Several feedback or feedforward activation and inhibition mechanisms exist so that, by a feedback mechanism, inhibiting the activity of PFKFB3 might inhibit glucose uptake by cells. An assay was developed to determine if there was inhibition of glucose uptake following exposure PFK-158. Briefly, Jurkat cells were plated at 10^5 cells/mL in RPMI 1640 supplemented with 10% fetal bovine serum and 50 μg/mL gentamicin sulfate. Cells were immediately treated with vehicle or 0.5 μmol/L of PFK-158 for 3 hours and subsequently placed in glucose-free RPMI 1640 for 30 min. ^14C-2-deoxyglucose (0.25 μCi/mL; Perkin Elmer) was added for an additional 60 min and cells were then washed three times with ice-cold RPMI 1640 containing no glucose. Cell lysates were collected in 500 μL of 0.1% SDS and scintillation counts (counts/min) were measured on 400 μL of lysate. Counts were normalized to protein concentration.

[3] = system: Jurkat cell line (leukemia cell line); test: Toxicity / cell growth of Jurkat cell line; format: cell-based; conditions: Homo sapiens
Method: The ability of PFK-158 to kill or inhibit the proliferation of cancer cells was measured using either the MTT assay, the alamarBlue® assay (Invitrogen, Grand Island, N.Y.), or the CellTiter Glo™ assay (Promega, Madison, Wis.) using 48 or 72 hours exposure.
Cells of the desired tumor cell line were plated at 2×10^5 cells/ml in 96 well plates. Twice the indicated concentrations of the compounds of the invention were added to cells the following day in an equal volume of media. 72 hours later, cells were lysed and subjected to ATP determination using the CellTiter-Glo™ Luminescent Cell Viability Assay kit. Experiments were performed in triplicate. When using the MTT assay or the alamarBlue® assay, the experimental conditions are essentially similar; at the end of the incubation period, 20 microliters of the MTT solution is added per well and the samples are incubated for an additional four hours, rinsed, and absorbance at 570 nm was measured. Results for the inhibition of cell proliferation are reported as the IC50 (the concentration resulting in 50% inhibition of proliferation of the cell population) and are listed in Table 5 below. Cell lines include lung, colon, prostate, breast, ovarian, and pancreatic cancer lines.

[4] = IV pharmacokinetics in rats, 30 mg/kg; format: in vivo; conditions: Table 7, Rat (30 mg/kg), Sprague Dawley rats
Method: The pharmacokinetic (PK) parameters for PFK-158 were determined in mice following IV (intravenous) administration in mice and rats. A typical study design includes six animals (male or female) 7 to 8 weeks old.
Mouse pharmacokinetic properties using a dose of 5 mg/kg were determined after IV administration using a 10% DMSO, 10% PEG-200, 10% Solutol:ethanol (1:1) and 70% D5W solution or any other pharmaceutically acceptable parenteral formulation. Blood samples were collected at different intervals. Plasma samples were extracted and analyzed using an LC-MS/MS method. Similar protocols were used for the rat PK study (Sprague Dawley rats; 30 mg/kg), although the formulation for rat PK studies differed (30% Captisol, pH 3.0 solution). Time vs. plasma concentration plots were prepared as shown in FIGS. 4 (BalbC mice) and 5 (SD rats), respectively. Pharmacokinetic parameters were calculated and are provided below in Table 7.

[5] = In vitro stability in human liver microsomes; format: in vitro ADME
[6] = Repeat-dose toxicology study in SD rats; format: in vivo
Method: Toxicology studies were performed in SD rats comparing PFK-158 and PFK-015 using a repeat dosing schedule. The studies were performed at dose levels ranging from 5 to 30 mg/kg and animals were monitored for weight loss, behavior, clinical signs, and clinical chemistries. At the end of the study, gross pathology and histopathology were performed.

[7] = Toxicology study in dogs at 40 mg/kg; format: in vivo, beagle dogs
Method: In another embodiment, the potential toxicity of PFK-158 (in the form of its dication) was investigated at 40 mg/kg in male and female beagle dogs using a 3 day a week for a total of three weeks dosing regimen. The potential toxicity of PFK-158 was investigated by monitoring all clinical signs during the in-life phase, taking blood and urine samples for full clinical chemistry panels and urinalysis, monitoring body weights and food intake. Gross necropsy and complete histopathology were performed at the time of termination.

[8] = Chemical stability of Cremophor based IV formulation; format: physicochemical; conditions: about 1 mg/ml in Cremophor:ethyl alcohol 1:1 diluted 1:9 in saline, WFI, lactate Ringer's or D5W
Method: PFK-158 and its salts can be prepared in a Cremophor® based formulation. In one embodiment, 10 mg PFK-158 are dissolved in 1 ml of 1:1 v:v Cremophor®:ethyl alcohol solution using vigorous stirring. Once the compound is effectively dissolved, the solution is filtered and then added to saline, water for injection, lactate Ringer's, or D5W in a 1:9 ratio, resulting in a clear solution, free from particles, with a PFK-158 concentration of about 1 mg/ml. The composition is chemically stable for at least 6 hours and can be administered to mammals, including humans.

[9] = Photoisomerization in formulation; format: physicochemical; conditions: phospho-lipidic aqueous emulsion or emulsifier-free, solvent-free aqueous solution
Description: Further, the solubility properties of PFK-158 are such that, if required, the compound can be administered using either a phospho-lipidic aqueous based emulsion, or in an emulsifier-free, solvent-free aqueous based solution.

PFKFB3, sequence (Q16875 whole entry): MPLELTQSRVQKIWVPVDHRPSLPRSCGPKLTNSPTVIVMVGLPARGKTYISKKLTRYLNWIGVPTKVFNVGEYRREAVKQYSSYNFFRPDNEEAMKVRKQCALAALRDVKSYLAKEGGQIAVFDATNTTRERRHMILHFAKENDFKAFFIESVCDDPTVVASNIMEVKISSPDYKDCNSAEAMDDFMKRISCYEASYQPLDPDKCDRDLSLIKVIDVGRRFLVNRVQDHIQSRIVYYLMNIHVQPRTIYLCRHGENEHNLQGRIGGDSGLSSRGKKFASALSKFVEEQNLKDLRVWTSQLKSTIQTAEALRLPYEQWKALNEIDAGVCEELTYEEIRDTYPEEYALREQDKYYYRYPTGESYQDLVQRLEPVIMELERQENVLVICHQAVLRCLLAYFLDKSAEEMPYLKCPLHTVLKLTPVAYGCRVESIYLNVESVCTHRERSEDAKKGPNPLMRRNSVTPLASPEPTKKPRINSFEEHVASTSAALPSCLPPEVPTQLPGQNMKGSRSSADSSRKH

Work on `O=C(/C=C/c1ccc2ccc(C(F)(F)F)cc2n1)c1ccncc1` [PFK-158, (E)-1-(pyridyn-4-yl)-3-(7-(trifluoromethyl)quinolin-2-yl)-prop-2-en-1-one] yielded an IC50 ([1]; FIG. 1, read-out: IC50, inhibition of recombinant PFKFB3 (ADP-Glo)) of 137 ± 15 nM, an IC50 ([1]; Table 1, read-out: IC50, Enzymatic activity of PFKFB3, ADP Glo Assay) of 137 ± 15 nM and an IC50 ([1]; Table 6, read-out: IC50 Rec PFKFB3) of 137 ± 15 nM. The IC50 ([1]; Table 8, read-out: IC50, Enzymatic activity of PFKFB3, ADP-Glo Assay) was 137 ± 15 nM, the IC50 ([2]; FIG. 2, 14C-2-deoxyglucose, read-out: IC50, inhibition of glucose uptake) was 847 ± 150 nM and the IC50 ([2]; Table 1, read-out: IC50, Inhibition of 2 deoxyglucose uptake) was 800 ± 100 nM. The IC50 ([2]; Table 6, read-out: IC50 Glucose Uptake) was 847 ± 150 nM, the IC50 ([3]; Jurkat, Table 1, read-out: IC50, toxicity of Jurkat cell line (leukemia cell line)) was 330 ± 100 nM and the IC50 ([3]; Table 6, Jurkat cells, read-out: IC50 Cell Growth) was 328 ± 15 nM. The T1/2b [4] was 8.6 h, the AUC(0-inf) ([4]; plasma) was 3300 ng·h/mL and the Cmax ([4]; plasma) was 18900 ng/mL. For the same compound, the “Percent metabolized after 1 hr” value [5] was 37%, the MTD ([6]; rat, in vivo, repeat dosing schedule) was > 30 mg/kg and the “Adverse observations in toxicology study” value ([6]; repeat dosing, PFK-158 5 to 30 mg/kg, PFK-015 12 and 25 mg/kg) was “no adverse observations”. For the same compound, the signs of toxicity ([7]; beagle dogs, 40 mg/kg three times a week for three weeks) was “no signs of toxicity”, the NOAEL at 3 weeks ([7]; both sexes, beagle, dog, in vivo) was 40 mg/kg and the “Human Equivalent Dose (HED) of the NOAEL” value ([7]; dog, in vivo) was 800 mg/m^2. The “chemical stability of composition” value [8] was “at least 6 hours” and the photoisomerization in solution [9] was “does not, in the formulation mentioned above, undergo a rapid photoisomerization”.
